The numbers were not newly measured in patent publication US10881700B1, “Compositions including extracts of gray mangrove leaves and methods of treatment using such compositions in treatment of viral infections” (KING ABDULLAH UNIVERSITY OF SCIENCE AND TECHNOLOGY, priority 2016, dated 2021), which cites them from elsewhere.

In one series the target is HIV-1 integrase (Human immunodeficiency virus type 1 group M subtype B, UniProt P04585). The conditions noted are these: reference [24].
A further series deals with HIV-1 reactivation. The conditions noted are these: reference [26].

With `COC(=O)C=Cc1ccccc1` [Methyl cinnamate], the “activity against HIV-1 integrase” value on HIV-1 integrase is “not demonstrated activity”.

As for `COc1ccccc1O` [gluaiacol, 2-Methoxy phenol], the “blocking HIV-1 reactivation in cases of virus latency” value with HIV-1 reactivation was “efficient in blocking HIV-1 reactivation”.
